Data as given in patent US20080269170A1, “Novel 2,4-Dianilinopyrimidine Derivatives, the Preparation Thereof, Their Use as Medicaments, Pharmaceutical Compositions and, in Particular, as IKK Inhibitors” (sanofi-aventis, priority 2005, published 2008).

Compound	melting point
CN1CCC(N(C)S(=O)(=O)c2ccc(Nc3nccc(Nc4ccc(F)c(Cl)c4)n3)cc2)CC1 [Example 12, 4-[4-(3-Chloro-4-fluorophenylamino)pyrimidin-2-ylamino]-N-methyl-N-(1-methylpiperidin-4-yl)benzenesulfonamide]	183 to 186 °C
CN(C1CCN(Cc2cccs2)CC1)S(=O)(=O)c1ccc(Nc2nccc(Nc3ccc(F)cc3)n2)cc1 [Example 13, 4-[4-(4-Fluorophenylamino)pyrimidin-2-ylamino]-N-methyl-N-(1-thiophen-2-ylmethylpiperidin-4-yl)benzenesulfonamide]	175 to 176 °C
CN1CCC(N(C2CC2)S(=O)(=O)c2ccc(Nc3nccc(Nc4ccc(F)cc4)n3)cc2)CC1 [Example 14, N-Cyclopropyl-4-[4-(4-fluorophenylamino)-pyrimidin-2-ylamino]-N-(1-methylpiperidin-4-yl)benzene-sulfonamide]	218 °C
CCN(C1CCN(Cc2ccccc2)C1)S(=O)(=O)c1ccc(Nc2nccc(Nc3ccc(F)cc3)n2)cc1 (stereo not shown) [Example 15, N-(1-Benzylpyrrolidin-3-yl)-4-[4-(4-fluoro-phenylamino)pyrimidin-2-ylamino]-N-ethylbenzene-sulfonamide]	125 to 127 °C
CN(C1CCN(Cc2ccsc2)CC1)S(=O)(=O)c1ccc(Nc2nccc(Nc3ccc(F)cc3)n2)cc1 [Example 16, 4-[4-(4-Fluorophenylamino)pyrimidin-2-ylamino]-N-methyl-N-(1-thiophen-3-ylmethylpiperidin-4-yl)benzenesulfonamide]	173 to 174 °C
CN(C)CCN(C1CCN(C)CC1)S(=O)(=O)c1ccc(Nc2nccc(Nc3ccc(F)cc3)n2)cc1 [Example 18, N-(2-Dimethylaminoethyl)-4-[4-(4-fluoro-phenylamino)pyrimidin-2-ylamino]-N-(1-methylpiperidin-4-yl)benzenesulfonamide]	135 to 137 °C
CN1CCC(N(CCO)S(=O)(=O)c2ccc(Nc3nccc(Nc4ccc(F)cc4)n3)cc2)CC1 [Example 19, 4-[4-(4-Fluorophenylamino)pyrimidin-2-ylamino]-N-(2-hydroxyethyl)-N-(1-methylpiperidin-4-yl)-benzenesulfonamide]	125 to 135 °C
CN1CCC(N(C)S(=O)(=O)c2ccc(Nc3nc(Cl)cc(Nc4ccc(F)cc4)n3)cc2)CC1 [Example 20, 4-[4-Chloro-6-(4-fluorophenylamino)pyrimidin-2-ylamino]-N-methyl-N-(1-methylpiperidin-4-yl)benzenesulfonamide]	140 to 142 °C
CN1CCC(N(C)C(=O)CNS(=O)(=O)c2ccc(Nc3nccc(Nc4ccc(F)cc4)n3)cc2)CC1 [Example 25, 2-{4-[4-(4-Fluorophenylamino)pyrimidin-2-ylamino]benzenesulfonylamino}-N-methyl-N-(1-methyl-piperidin-4-yl)acetamide]	233 to 234.4 °C
CN(C1CCN(Cc2cc[n+]([O-])cc2)CC1)S(=O)(=O)c1ccc(Nc2nccc(Nc3ccc(F)cc3)n2)cc1 [Example 29, 4-[4-(4-Fluorophenylamino)pyrimidin-2-ylamino]-N-[1-(1-N-oxidepyridin-4-ylmethyl)piperidin-4-yl]-N-methylbenzenesulfonamide]	155 to 156 °C
Cc1ncc(CN2CCC(N(C)S(=O)(=O)c3ccc(Nc4nccc(Nc5ccc(F)cc5)n4)cc3)CC2)[nH]1 [Example 30, 4-[4-(4-Fluorophenylamino)pyrimidin-2-ylamino]-N-methyl-N-[1-(2-methyl-3H-imidazol-4-ylmethyl)piperidin-4-yl]benzenesulfonamide]	155 °C
CN(C1CCN(Cc2ccccc2F)CC1)S(=O)(=O)c1ccc(Nc2nccc(Nc3ccc(F)cc3)n2)cc1 [Example 31, N-[1-(2-Fluorobenzyl)piperidin-4-yl]-4-[4-(4-fluorophenylamino)pyrimidin-2-ylamino]-N-methyl-benzenesulfonamide]	182 to 183 °C
CN(C1CCN(Cc2cccc(F)c2)CC1)S(=O)(=O)c1ccc(Nc2nccc(Nc3ccc(F)cc3)n2)cc1 [Example 32, N-[1-(3-Fluorobenzyl)piperidin-4-yl]-4-[4-(4-fluorophenylamino)pyrimidin-2-ylamino]-N-methyl-benzenesulfonamide]	207 °C
CN(C1CCN(Cc2ccc(F)cc2)CC1)S(=O)(=O)c1ccc(Nc2nccc(Nc3ccc(F)cc3)n2)cc1 [Example 33, N-[1-(4-Fluorobenzyl)piperidin-4-yl]-4-[4-(4-fluorophenylamino)pyrimidin-2-ylamino]-N-methyl-benzenesulfonamide]	129 to 131 °C
CC(C)N1CCC(N(C)S(=O)(=O)c2ccc(Nc3nccc(Nc4ccc(F)cc4)n3)cc2)CC1 [Example 37, 4-[4-(4-Fluorophenylamino)pyrimidin-2-yl-amino]-N-(1-isopropylpiperidin-4-yl)-N-methylbenzene-sulfonamide]	202 to 203 °C
CC(C)CN1CCC(N(C)S(=O)(=O)c2ccc(Nc3nccc(Nc4ccc(F)cc4)n3)cc2)CC1 [Example 38, 4-[4-(4-Fluorophenylamino)pyrimidin-2-yl-amino]-N-(1-isobutylpiperidin-4-yl)-N-methylbenzene-sulfonamide]	194 to 195 °C
CC(C)CCN1CCC(N(C)S(=O)(=O)c2ccc(Nc3nccc(Nc4ccc(F)cc4)n3)cc2)CC1 [Example 39, 4-[4-(4-Fluorophenylamino)pyrimidin-2-yl-amino]-N-methyl-N-[1-(3-methylbutyl)piperidin-4-yl]-benzenesulfonamide]	184 to 185 °C
CN(C1CCN(CCCC(F)(F)F)CC1)S(=O)(=O)c1ccc(Nc2nccc(Nc3ccc(F)cc3)n2)cc1 [Example 40, 4-[4-(4-Fluorophenylamino)pyrimidin-2-yl-amino]-N-methyl-N-[1-(4,4,4-trifluorobutyl)piperidin-4-yl]benzenesulfonamide]	166 to 167 °C
Cc1cc(Nc2ccnc(Nc3ccc(S(=O)(=O)N(CCN)C4CCNCC4)cc3)n2)ccc1F [Example 48, N-(2-Aminoethyl)-4-[4-(4-fluoro-3-methyl-phenylamino)pyrimidin-2-ylamino]-N-piperidin-4-yl-benzenesulfonamide]	242 to 244 °C
CN(C1CCN(CC(C)(C)O)CC1)S(=O)(=O)c1ccc(Nc2nccc(Nc3ccc(F)cc3)n2)cc1 [Example 49, 4-[4-(4-Fluorophenylamino)pyrimidin-2-yl-amino]-N-[1-(2-hydroxy-2-methylpropyl)piperidin-4-yl]-N-methylbenzenesulfonamide]	216 to 217 °C
Cc1cc(Nc2ccnc(Nc3ccc(S(=O)(=O)N(C)C4CCN(C)CC4)cc3)n2)ccc1F [Example 86, 4-({4-[(4-fluoro-3-methylphenyl)amino]-pyrimidin-2-yl}amino)-N-methyl-N-(1-methylpiperidin-4-yl)benzenesulfonamide]	110 to 120 °C
Cc1cc(Nc2ccnc(Nc3ccc(S(=O)(=O)N(CCN4CCCC4)C4CCN(C)CC4)cc3)n2)ccc1F [Example 87, 4-({4-[(4-Fluoro-3-methylphenyl)amino]-pyrimidin-2-yl}amino)-N-(1-methylpiperidin-4-yl)-N-(2-pyrrolidin-1-ylethyl)benzenesulfonamide]	93 to 103 °C
